≈ marks a conversion by molar mass, not a printed value. Like-named read-outs stand apart in the source and are kept apart here. Positions of bridges follow the written chain, without caps; N, C: chain ends. Non-standard residues stand in square brackets, D forms with d. Residues, ends and D or L forms follow the SMILES beside them. S5 = C=CCCC[C@](C)(N)C(=O)O; Nle = CCCC[C@H](N)C(=O)O
Key:
[1] = tested on: human red blood cells (RBCs); experiment: Hemolytic activity assay; type: cell-based; details: peptide at 25 μg/ml, 1 hour at 37° C.
Experimental: For the determination of hemolytic activity, human blood samples were centrifuged to isolate red blood cells (RBCs), which are then washed and suspended in phosphate-buffered saline to yield a 1% (v/v) suspension. The suspension was then added to serial dilutions of peptide stocks in water in clear round-bottom polypropylene 96-well plates and the plates were incubated for 1 hour at 37° C. After incubation, the plates were centrifuged and the supernatant was isolated to determine the amount of hemoglobin released using a spectrophotometer (570 nm), according to the equation: % Hemolysis=(Treated Absorbance−Untreated Control Absorbance)/(1% Triton-X100 Treated Absorbance−Untreated Control Absorbance). The minimum hemolytic concentration (MHC) is the peptide concentration at which there is less than 1% hemoglobin release.

[2] = tested on: E. coli clinical isolates that harbor the MCR-1 plasmid; type: cell-based
Experimental: StAMPs were screened against a panel of MDR clinical samples obtained from the Antimicrobial Resistance Isolate Bank of the Centers for Disease Control and Prevention (Atlanta, Ga.).
(§1) The following microbroth dilution protocol was adapted to determine the minimum inhibitory concentration (MIC) of each peptide. First, Mueller-Hinton broth (MHB) was passed through an anion exchange column to remove polyanionic species and generate refined MHB. […] Briefly, bacterial cells were grown overnight in refined MHB at 37° C. and then diluted and allowed to grow again for several hours. Serial dilutions of peptide stocks in water (10 μl) were prepared using clear round-bottom polypropylene 96-well plates. Then 90 μl of bacteria in refined MHB was added to give a final inoculum of 5×10^5 CFU/ml. The plates were then covered with porous tape to reduce evaporation, and incubated for 20-24 hours at 37° C. The MIC is the minimum peptide concentration at which no visible growth was observed.
The first three StAMPs of Table 2 in Example 3 were then tested against 39 clinical isolates of A. baumannii with various degrees of colistin resistance (Table 3, 4).

[3] = tested on: Methicillin-resistant S Aureus; type: cell-based
Experimental: as §1
(§2) StAMPs Mag(i+4)2,15(A9K), Pleu(i+4)1,15(A9K) and Pleu(i+4)1,15 were also then tested against 4 clinical isolates of S. aureus of which two were methicillin-susceptible (MSSA) and two were methicillin-resistant (MRSA) (Table 5).

[4] = tested on: Methicillin-susceptible S Aureus; type: cell-based
Experimental: as §1, §2

[5] = tested on: primary human renal proximal tubule epithelial cells (pRPTECs); details: for pRPTEC lysis (% LDH release) compared to Mag(i+4)1,15(A9K): 90 minute incubation, FIG. 2; for pRPTEC lysis (% LDH release), long-term lytic activity: 48 hours incubation, FIG. 3
Experimental: (§3) In one embodiment, pRPTECs are seeded at a density of 10,000 cells per well on 96 well plates and incubated for 48 hours at 37° C. Cells are then treated with different concentrations of the StAMP and incubated for another 24-to-48 hour period. Cell viability is then determined and/or lactate dehydrogenase (LDH) release is measured.
(§4) Briefly, pRPTECs in complete growth cell medium were seeded in a 96 well plate at a density of 10,000 cells per well and incubated at 37° C. for 48 hours. Complete medium was then removed and replaced with a toxicity assay medium to which various concentrations of StAMP were added. Cells were then further incubated for 24 to 48 hours after which cell medium was collected and assayed for the presence of Lactate Dehydrogenase (LDH) using a Cytotoxicity Detection Kit (LDH) (Roche).

[6] = tested on: P aeruginosa; type: cell-based
Experimental: as §1

[7] = tested on: S aureus; type: cell-based
Experimental: as §1

[8] = tested on: E coli; type: cell-based
Experimental: as §1

[9] = tested on: B cereus; type: cell-based
Experimental: as §1

[10] = tested on: A baumannii; type: cell-based
Experimental: as §1

[11] = tested on: primary human renal proximal tubule epithelial cells (pRPTECs); experiment: Renal toxicity assay (pRPTEC lysis, LDH release)
Experimental: as §3, §4

[12] = E. coli CDC Bank# 346, contains MCR-1 plasmid
[13] = E. coli CDC Bank# 349, contains MCR-1 plasmid

Row | Structure (SMILES) | % Hemolysis at 25 μg/ml [1] | Antimicrobial Activity MIC [2, 12] | Antimicrobial Activity MIC [2, 13] | Antimicrobial Activity MIC [3] | Antimicrobial Activity MIC [4] | pRPTEC lysis (% LDH release) compared to Mag(i+4)1,15(A9K) [5] | pRPTEC lysis (% LDH release), long-term lytic activity [5] | MIC P aeruginosa [6] | MIC S aureus [7] | MIC E coli [8] | MIC B cereus [9] | MIC A baumannii [10] | pRPTEC lysis (% LDH release) relative to Mag(i+4)1,15(A9K) ([5]; 24-hour incubation, FIG. 1) | toxicity on pRPTECs (membranolysis) [11]
1 | CC(C)C[C@H](NC(=O)[C@H](Cc1ccc(O)cc1)NC(=O)[C@H](Cc1c[nH]cn1)NC(=O)[C@@H](NC(=O)[C@H](CC(C)C)NC(=O)[C@]1(C)CCCC=CCCC[C@](C)(NC(=O)[C@H](Cc2c[nH]cn2)NC(=O)[C@H](CCCCN)NC(=O)CNC(=O)[C@@H](NC(=O)[C@H](Cc2c[nH]cn2)NC(=O)[C@H](C)NC(=O)[C@H](CCCCN)NC(=O)[C@H](CCCCN)NC(=O)[C@H](CCCCN)NC(=O)[C@]2(C)CCCC=CCCC[C@](C)(NC(=O)CN)C(=O)NCC(=O)N[C@@H](CO)C(=O)N[C@@H](Cc3ccccc3)C(=O)N2)C(C)C)C(=O)NCC(=O)N[C@@H](CCCCN)C(=O)N[C@@H](C)C(=O)N1)[C@@H](C)O)C(N)=O [Pleu(i+4)1,15(A9K), GXGSFXKKKAHVGKHXGKAXLTHYL] (H-G[S5]GSF[S5]KKKAHVGKH[S5]GKA[S5]LTHYL-NH2; staple 2-6, 16-20) | 16.3% | 1.6 mg/L | 1.6 mg/L | 3.1 mg/L | 3.1 mg/L | – | – | – | – | – | – | – | – | –
2 | CC(C)C[C@H](NC(=O)[C@H](Cc1ccc(O)cc1)NC(=O)[C@H](Cc1c[nH]cn1)NC(=O)[C@@H](NC(=O)[C@H](CC(C)C)NC(=O)[C@]1(C)CCCC=CCCC[C@](C)(NC(=O)[C@H](Cc2c[nH]cn2)NC(=O)[C@H](CCCCN)NC(=O)CNC(=O)[C@@H](NC(=O)[C@H](Cc2c[nH]cn2)NC(=O)[C@H](C)NC(=O)[C@H](C)NC(=O)[C@H](CCCCN)NC(=O)[C@H](CCCCN)NC(=O)[C@]2(C)CCCC=CCCC[C@](C)(NC(=O)CN)C(=O)NCC(=O)N[C@@H](CO)C(=O)N[C@@H](Cc3ccccc3)C(=O)N2)C(C)C)C(=O)NCC(=O)N[C@@H](CCCCN)C(=O)N[C@@H](C)C(=O)N1)[C@@H](C)O)C(N)=O [Pleu(i+4)1,15, GXGSFXKKAAHVGKHXGKAXLTHYL] (H-G[S5]GSF[S5]KKAAHVGKH[S5]GKA[S5]LTHYL-NH2; staple 2-6, 16-20) | 88.2% | – | – | 3.1 mg/L | 3.1 mg/L | – | – | – | – | – | – | – | – | –
3 | CCCC[C@H](NC(=O)[C@]1(C)CCCC=CCCC[C@](C)(NC(=O)[C@H](C)NC(=O)[C@H](CCCCN)NC(=O)CNC(=O)[C@H](Cc2ccccc2)NC(=O)[C@H](CCCCN)NC(=O)[C@H](CCCCN)NC(=O)[C@H](CCCCN)NC(=O)[C@H](CO)NC(=O)[C@]2(C)CCCC=CCCC[C@](C)(NC(=O)[C@@H](NC(=O)CN)[C@@H](C)CC)C(=O)N[C@@H](CCCCN)C(=O)N[C@@H](Cc3ccccc3)C(=O)N[C@@H](CC(C)C)C(=O)N2)C(=O)N[C@@H](C(C)C)C(=O)NCC(=O)N[C@@H](CCC(=O)O)C(=O)N1)C(=O)N[C@@H](CC(N)=O)C(=O)N[C@@H](CO)C(N)=O [Mag(i+4)2,15(A9K), GIXKFLXSKKKFGKAXVGEXBNS] (H-GI[S5]KFL[S5]SKKKFGKA[S5]VGE[S5][Nle]NS-NH2; staple 3-7, 16-20) | 17.9% | 2.2 mg/L | 3.1 mg/L | 1.6 mg/L | 1.6 mg/L | – | – | – | – | – | – | – | – | –
4 | CC(C)[C@@H]1NC(=O)[C@@](C)(NC(=O)[C@H](C)NC(=O)[C@H](CCCCN)NC(=O)CNC(=O)[C@H](Cc2ccccc2)NC(=O)[C@H](CCCCN)NC(=O)[C@H](CCCCN)NC(=O)[C@H](CCCCN)NC(=O)[C@H](CO)NC(=O)[C@H](Cc2c[nH]cn2)NC(=O)[C@]2(C)CCCC=CCCC[C@](C)(NC(=O)CN)C(=O)NCC(=O)N[C@@H](CCCCN)C(=O)N[C@@H](Cc3ccccc3)C(=O)N2)CCCC=CCCC[C@@](C)(C(=O)N[C@@H](C)C(=O)N[C@@H](CCCCN)C(=O)N[C@@H](CCCCN)C(N)=O)NC(=O)[C@H](CCC(=O)O)NC(=O)CNC1=O [Mag(i+4)1,15(A9K, B21A, N22K, S23K), GXGKFXHSKKKFGKAXVGEXAKK] (H-G[S5]GKF[S5]HSKKKFGKA[S5]VGE[S5]AKK-NH2; staple 2-6, 16-20) | – | – | – | – | – | markedly reduced lytic activity toward pRPTECs | lowered long-term lytic activity | 3.1 mg/L (≈ 1.22 µM) | >50 mg/L | 1.6 mg/L (≈ 0.632 µM) | 50 mg/L (≈ 19.7 µM) | 0.8 mg/L (≈ 0.316 µM) | – | –
5 | CC(C)[C@@H]1NC(=O)[C@@](C)(NC(=O)[C@H](C)NC(=O)[C@H](CCCCN)NC(=O)CNC(=O)[C@H](Cc2ccccc2)NC(=O)[C@H](CCCCN)NC(=O)[C@H](CCCCN)NC(=O)[C@H](CCCCN)NC(=O)[C@H](CO)NC(=O)[C@H](Cc2c[nH]cn2)NC(=O)[C@]2(C)CCCC=CCCC[C@](C)(NC(=O)CN)C(=O)NCC(=O)N[C@@H](CCCCN)C(=O)N[C@@H](Cc3ccccc3)C(=O)N2)CCCC=CCCC[C@@](C)(C(=O)N[C@@H](C)C(=O)N[C@@H](CC(N)=O)C(=O)N[C@@H](CO)C(N)=O)NC(=O)[C@H](CCC(=O)O)NC(=O)CNC1=O [Mag(i+4)1,15(A9K, B21A), GXGKFXHSKKKFGKAXVGEXANS] (H-G[S5]GKF[S5]HSKKKFGKA[S5]VGE[S5]ANS-NH2; staple 2-6, 16-20) | – | – | – | – | – | – | – | 8.8 mg/L (≈ 3.55 µM) | >50 mg/L | 6.2 mg/L (≈ 2.5 µM) | 50 mg/L (≈ 20.2 µM) | – | significantly attenuated pRPTEC lysis | –
6 | CC(C)[C@@H]1NC(=O)[C@@](C)(NC(=O)[C@H](C)NC(=O)[C@H](CCCCN)NC(=O)CNC(=O)[C@H](Cc2ccccc2)NC(=O)[C@H](CCCCN)NC(=O)[C@H](CCCCN)NC(=O)[C@H](CCCCN)NC(=O)[C@H](CO)NC(=O)[C@H](Cc2c[nH]cn2)NC(=O)[C@]2(C)CCCC=CCCC[C@](C)(NC(=O)CN)C(=O)NCC(=O)N[C@@H](CCCCN)C(=O)N[C@@H](Cc3ccccc3)C(=O)N2)CCCC=CCCC[C@@](C)(C(=O)N[C@@H](CCCCN)C(=O)N[C@@H](CC(N)=O)C(=O)N[C@@H](CO)C(N)=O)NC(=O)[C@H](CCC(=O)O)NC(=O)CNC1=O [Mag(i+4)1,15(A9K, B21K), GXGKFXHSKKKFGKAXVGEXKNS] (H-G[S5]GKF[S5]HSKKKFGKA[S5]VGE[S5]KNS-NH2; staple 2-6, 16-20) | – | – | – | – | – | markedly reduced lytic activity toward pRPTECs | lowered long-term lytic activity | 12.5 mg/L (≈ 4.93 µM) | >50 mg/L | 3.1 mg/L (≈ 1.22 µM) | 35.4 mg/L (≈ 14 µM) | 1.6 mg/L (≈ 0.631 µM) | – | –
7 | CCCC[C@H](NC(=O)[C@]1(C)CCCC=CCCC[C@](C)(NC(=O)[C@H](C)NC(=O)[C@H](CCCCN)NC(=O)CNC(=O)[C@H](Cc2ccccc2)NC(=O)[C@H](CCCCN)NC(=O)[C@H](CCCCN)NC(=O)[C@H](CCCCN)NC(=O)[C@H](CO)NC(=O)[C@H](Cc2c[nH]cn2)NC(=O)[C@]2(C)CCCC=CCCC[C@](C)(NC(=O)CN)C(=O)NCC(=O)N[C@@H](CCCCN)C(=O)N[C@@H](Cc3ccccc3)C(=O)N2)C(=O)N[C@@H](C(C)C)C(=O)NCC(=O)N[C@@H](CCC(=O)O)C(=O)N1)C(=O)N[C@@H](CC(N)=O)C(=O)N[C@@H](CO)C(N)=O [Mag(i+4)1,15(A9K), GXGKFXHSKKKFGKAXVGEXBNS] (H-G[S5]GKF[S5]HSKKKFGKA[S5]VGE[S5][Nle]NS-NH2; staple 2-6, 16-20) | 1.9% | 1.6 mg/L | 3.1 mg/L | – | – | – | – | 3.1 mg/L (≈ 1.23 µM) | 50 mg/L (≈ 19.8 µM) | 1.6 mg/L (≈ 0.635 µM) | 6.2 mg/L (≈ 2.46 µM) | 1.6 mg/L (≈ 0.635 µM) | – | could cause membranolysis of pRPTECs at relatively low concentrations

Reference: US11325955B2, “Stabilized anti-microbial peptides for the treatment of antibiotic-resistant bacterial infections” (priority 2017, dated 2022)
